Laboratory results from paper PMC5216351, “Obtaining control of cell surface functionalizations via Pre-targeting and Supramolecular host guest interactions” (Scientific Reports, 2017).
Positions of bridges follow the written chain, without caps; N, C: chain ends. Non-standard residues stand in square brackets, D forms with d. Residues, ends and D or L forms follow the SMILES beside them. *: point of attachment. Adamantane1carbonyl = O=C(C12CC3CC(CC(C3)C1)C2)*; 2Nal = N[C@@H](Cc1ccc2ccccc2c1)C(=O)O; Cit = NC(=O)NCCC[C@H](N)C(=O)O

Legend:
MDAMB231 X4 cells = assay: Host-guest dependent cell functionalization, confocal microscopy and flow cytometry; assay type: cell-based, human; details: peptide 10 μM, polymer 10 μM β-CD / 1 μM polymer, 1 h each at 0 °C; Fig. 3a
Method: The receptor-mediated functionalization of cells was examined by confocal microscopy and flow cytometry (see also ‘Ac-TZ14011-Ad induced cell functionalization analyzed by flow cytometry’). For Confocal microscopy MDAMB231 × 4 cells (80,000 per well) were incubated with either Ac-TZ14011 (10 μM), Ac-TZ14011-Ad (10 μM), or none, for 1 h at 0 °C in 1 mL DMEM. […] Thereafter, the cells were washed twice with PBS and confocal images were acquired. All experiments were performed in 6-fold and for each condition per experiment at least 10 cells were included in the study. The Cy5 signal present on the cell in each sample was quantified to analyze differences between the amount of binding of the polymers to the cells when either, no peptide, Ac-TZ14011, or Ac-TZ14011-Ad was present. For normalization all results were divided by the average fluorescence value obtained when just the polymer was added. The significance of the obtained differences was determined by student T-test (two tailed, unpaired).
Besides examining the receptor-mediated functionalization of cells by confocal microscopy (see ‘Ac-TZ14011-Ad induced cell functionalization analyzed by confocal microscopy’) the functionalization was also examined by flow cytometry to quantify the rate of functionalization. […] For data normalization, all results were divided by the average fluorescence value obtained when only the polymer was added. […]

[1] = biological target: T1, chemokine receptor 4 (CXCR4) (Homo sapiens, UniProt P61073); assay: Flow cytometry competition binding on viable CXCR4 expressing cells (receptor affinity); details: competition with Ac-TZ14011-MSAP (250 nM), 0.5 – 15,000 nM in PBS, MDAMB231 X4 cells, 1 h on ice, n = 2, One site-Fit Ki
T1 construct: expressed in transfected cells; host or cells: MDAMB231 X4 (human MDA-MB-231 breast cancer cells, provided by Dr. Gary Luker)
Method: Human MDAMB231 cells, transfected with human CXCR4 conjugated GFP (MDAMB231 X4), were kindly provided by Dr. Gary Luker (Center for Molecular Imaging, University of Michigan, USA).5 Native MDAMB231 cells with basal CXCR4 expression were used as control.6 Cells we re maintained in Dulbecco’s minimum essential medium (DMEM) enriched with 10% fetal bovine serum and 5 mL Penicillin/Streptomycin (1,000 units/mL Penicillin; 1,000 μg/mL Streptomycin) (all Life Technologies Inc.). Cell lines were cultured and maintained under standard conditions […]
One day prior the experiment, cells were trypsinized, seeded onto culture dishes with glass insert (ø35mm glass bottom dishes No. 15, poly-d-lysine coated, γ-Irradiated, MatTek corporation) and incubated overnight in 2 mL DMEM. […] The intrinsic GFP signal in the MDAMB231 X4 cells was measured with excitation at 488 nm and emission was collected at 500-525 nm.
Cy3 fluorescence was measured with excitation at 514 nm, emission was collected at 550-5 70 nm. Cy5 fluorescence was measured with excitation at 633 nm, emission was collected at 650-700 nm. Any Hoechst 33342 fluorescence was measured using 405 nm excitation and emission was collected at 420-470 nm. Images and signal quantifications were obtained using Leica Application Suite software, by applying the polygon function and calculating the average gray value/m2 for each cell. […]

T1 sequence (P61073 whole entry): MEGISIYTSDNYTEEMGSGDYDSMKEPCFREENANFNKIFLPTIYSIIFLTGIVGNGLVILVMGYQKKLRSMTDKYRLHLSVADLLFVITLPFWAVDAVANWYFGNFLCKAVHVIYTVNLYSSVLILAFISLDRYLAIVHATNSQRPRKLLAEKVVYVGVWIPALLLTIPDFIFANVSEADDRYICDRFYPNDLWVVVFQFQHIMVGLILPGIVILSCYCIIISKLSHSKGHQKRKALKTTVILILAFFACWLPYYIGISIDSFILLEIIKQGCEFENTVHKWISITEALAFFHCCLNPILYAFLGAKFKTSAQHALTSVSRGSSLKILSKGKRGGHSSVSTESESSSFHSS

For `CC(=O)N[C@@H](CCCNC(=N)N)C(=O)N[C@@H](CCCNC(=N)N)C(=O)N[C@@H](Cc1ccc2ccccc2c1)C(=O)N[C@H]1CSSC[C@@H](C(=O)N[C@@H](CCCNC(=N)N)C(N)=O)NC(=O)[C@H](CCCNC(N)=O)NC(=O)[C@H](CCCNC(=N)N)NC(=O)[C@H](Cc2ccc(O)cc2)NC(=O)[C@@H]2CCCN2C(=O)[C@@H](CCCCNC(=O)C23CC4CC(CC(C4)C2)C3)NC(=O)[C@H](CCCNC(=N)N)NC(=O)[C@H](CCCNC(N)=O)NC(=O)[C@H](Cc2ccc(O)cc2)NC1=O` [Ac-TZ14011-Ad] (Ac-RR[2Nal]CY[Cit]R[dK](Adamantane1carbonyl)PYR[Cit]CR-NH2; disulfide 4-13), the “effect of pre-targeting peptide on Cy5_0.5CD10PIBMA39 binding” value (MDAMB231 X4 cells) was “further enhances this effect” and the Kd [1] was 0.056 µM.
